Source: ChEMBL document CHEMBL3044606, “Binding of sodium houttuyfonate analogues to bovine serum albumin revealed by fluoresence quenching study” (Med Chem Res, 2010)

What was measured:
Format in all cases: ADME
Details in all cases: cattle, isolated protein; call rule not given here
Albumin [1] = molecular target: T1, Albumin (Bos taurus, UniProt P02769); test: Binding affinity to Bos taurus (bovine) serum albumin assessed as decrease in decrease in absorption at 50 uM after 5 min by UV-Vis spectrophotometric analysis; design: scale not given: the % may be the effect or the level left
T1 sequence (P02769 whole entry): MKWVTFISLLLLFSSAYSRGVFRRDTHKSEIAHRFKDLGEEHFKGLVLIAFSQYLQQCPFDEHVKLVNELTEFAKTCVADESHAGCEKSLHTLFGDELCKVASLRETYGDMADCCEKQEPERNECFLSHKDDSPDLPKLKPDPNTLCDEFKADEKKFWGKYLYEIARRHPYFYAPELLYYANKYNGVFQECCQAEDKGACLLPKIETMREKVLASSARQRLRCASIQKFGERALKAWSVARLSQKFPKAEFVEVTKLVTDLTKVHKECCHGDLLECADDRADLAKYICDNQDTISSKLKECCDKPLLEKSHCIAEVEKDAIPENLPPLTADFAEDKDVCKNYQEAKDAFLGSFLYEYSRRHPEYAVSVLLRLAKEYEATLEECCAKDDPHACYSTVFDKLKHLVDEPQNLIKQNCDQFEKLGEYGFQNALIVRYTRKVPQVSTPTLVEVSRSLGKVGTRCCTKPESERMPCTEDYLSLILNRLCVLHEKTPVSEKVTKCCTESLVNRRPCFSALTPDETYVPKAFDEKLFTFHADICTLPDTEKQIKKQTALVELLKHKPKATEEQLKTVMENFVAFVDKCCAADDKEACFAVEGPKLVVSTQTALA

Albumin [2] = molecular target: T1, Albumin; test: Binding affinity to Bos taurus (bovine) serum albumin after 5 min at 37 degC by Stern-Volmer plot analysis
Albumin [3] = molecular target: T1, Albumin; test: Binding affinity to Bos taurus (bovine) serum albumin after 5 min at 25 degC by Stern-Volmer plot analysis
Albumin [4] = molecular target: T1, Albumin; test: Binding affinity to Bos taurus (bovine) serum albumin assessed as decrease in fluorescence at 1:25 protein:compound ratio after 5 min by fluorimetric analysis
Albumin [5] = molecular target: T1, Albumin; test: Binding affinity to Bos taurus (bovine) serum albumin assessed as shift in emission wavelength at 25 to 200 uM after 5 min by fluorimetric analysis
Albumin [6] = molecular target: T1, Albumin; test: Binding affinity to Bos taurus (bovine) serum albumin assessed as decrease in fluorescence after 5 min by fluorimetric analysis

Row | Compound | Activity (Albumin [1]) | KSV (Albumin [2]) | Kq (Albumin [2]) | K (Albumin [3]) | KSV (Albumin [3]) | Kq (Albumin [3]) | Activity (Albumin [4]) | Activity (Albumin [5]) | Activity (Albumin [6])
1 | CCCCCCCCCCCC(=O)CC(O)S(=O)(=O)[O-].[Na+] (stereo not given) [DODECANOYL ACETAL SODIUM SULFITE] | 90% | 72 ×10³ /M | 7.2 ×10¹² /M/s | 0.197 ×10⁶ /M | 147.9 ×10³ /M | 14.79 ×10¹² /M/s | Active | Not Active | Dose-dependent effect
2 | CCCCCC(=O)CC(O)S(=O)(=O)[O-].[Na+] (stereo not given) [HEXANOYL ACETAL SODIUM SULFITE] | 50% | 73.5 ×10³ /M | 7.35 ×10¹² /M/s | 6.7081 ×10⁶ /M | 36.7 ×10³ /M | 3.67 ×10¹² /M/s | Not Active | Not Active | Dose-dependent effect
3 | CCCCCCCC(=O)CC(O)S(=O)(=O)[O-].[Na+] (stereo not given) [OCTANOYL ACETAL SODIUM SULFITE] | 50% | 529.2 ×10³ /M | 52.92 ×10¹² /M/s | 691.83 ×10⁶ /M | 381.3 ×10³ /M | 38.13 ×10¹² /M/s | Active | Not Active | Dose-dependent effect
4 | CCCCCCCCCC(=O)CC(O)S(=O)(=O)[O-].[Na+] (stereo not given) [SODIUM HOUTTUYFONATE] | 90% | 113 ×10³ /M | 11.3 ×10¹² /M/s | 84.606 ×10⁶ /M | 217.3 ×10³ /M | 21.73 ×10¹² /M/s | Active | Not Active | Dose-dependent effect
5 | CCCCCCCCCCCCCC(=O)CC(O)S(=O)(=O)[O-].[Na+] (stereo not given) [TETRADECANOYL ACETAL SODIUM SULFITE] | 90% | 93.2 ×10³ /M | 9.32 ×10¹² /M/s | 1360.5 ×10⁶ /M | 121.7 ×10³ /M | 12.17 ×10¹² /M/s | Active | Not Active | Dose-dependent effect
